Reference: patent US20250170130A1, “MODULATORS OF MYC FAMILY PROTO-ONCOGENE PROTEIN” (Nalo Therapeutics, priority 2022, published 2025)
Read-outs that look alike come from different tables or passages of the source.

How the values were obtained:
MycC = target: T1, MycC (Homo sapiens, UniProt P01106); assay: Degradation of MycC protein in L363 cells, JESS/Western blot of lysates; assay type: cell-based; conditions: L-363, 24 h; for Dmax at 0.5 µM: read-out: % Degradation of MycC (L-363) 24 h, 0.5 μM; for Dmax at 1 µM: read-out: % Degradation of MycC (L-363) 24 h, 1 μM; for Dmax at 3 µM: read-out: % Degradation of MycC (L-363) 24 h, 3 μM; for Dmax at 6 µM: read-out: % Degradation of MycC (L-363) 24 h, 6 μM
T1 construct: endogenous in cells; host or cells: L363
Procedure, shortened: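 L363 suspension cells were seeded at 1E6 cells per well and exposed to compound (stock 10 mM in DMSO) for 24 hrs. Cells were collected, spun down, rinsed with PBS, lysed in RIPA buffer cocktail on ice, clarified and kept at −80 degrees. Lysate protein was quantified by BCA, and c-myc was measured on JESS by chemiluminescence with tubulin and GAPDH loading controls in the NIR channel.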

MycN = target: T2, MycN (Homo sapiens, UniProt P04198); assay: Degradation of MycN protein in SK-N-BE(2) cells, JESS/Western blot of lysates; assay type: cell-based; conditions: SKNBE2, 24 h; for Dmax at 0.5 µM: read-out: % Degradation of MycN (SKNBE2) 24 h, 0.5 μM; for Dmax at 1 µM: read-out: % Degradation of MycN (SKNBE2) 24 h, 1 μM; for Dmax at 3 µM: read-out: % Degradation of MycN (SKNBE2) 24 h, 3 μM; for Dmax at 6 µM: read-out: % Degradation of MycN (SKNBE2) 24 h, 6 μM
T2 construct: endogenous in cells; host or cells: SK-N-BE(2)
T2 sequence (P04198 1-464): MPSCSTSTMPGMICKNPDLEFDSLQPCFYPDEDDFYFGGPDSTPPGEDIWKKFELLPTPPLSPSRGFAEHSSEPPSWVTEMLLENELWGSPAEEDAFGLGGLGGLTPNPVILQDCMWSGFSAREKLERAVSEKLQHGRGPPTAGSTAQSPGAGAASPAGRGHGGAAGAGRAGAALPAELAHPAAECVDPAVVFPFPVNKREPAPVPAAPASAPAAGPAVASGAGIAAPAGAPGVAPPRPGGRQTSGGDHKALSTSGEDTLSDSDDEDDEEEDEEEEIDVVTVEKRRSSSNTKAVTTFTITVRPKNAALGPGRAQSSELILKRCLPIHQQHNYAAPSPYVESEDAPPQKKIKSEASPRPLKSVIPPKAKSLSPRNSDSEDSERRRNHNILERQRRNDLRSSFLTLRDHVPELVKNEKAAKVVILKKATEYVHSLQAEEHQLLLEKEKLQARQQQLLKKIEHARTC
Procedure, shortened: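 SK-N-BE(2) adherent cells (5E5 per well of a 6 well dish) were grown 24 hrs, then exposed to compounds diluted 1 in 20 in media, with DMSO controls, for 24 hrs. Cells were scraped, pelleted, PBS washed and lysed in RIPA buffer cocktail; after BCA protein quantitation, n-myc was detected by chemiluminescence on JESS/Western blot with tubulin and GAPDH loading controls read in the near infra red channel.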

T1 sequence (P01106 whole entry): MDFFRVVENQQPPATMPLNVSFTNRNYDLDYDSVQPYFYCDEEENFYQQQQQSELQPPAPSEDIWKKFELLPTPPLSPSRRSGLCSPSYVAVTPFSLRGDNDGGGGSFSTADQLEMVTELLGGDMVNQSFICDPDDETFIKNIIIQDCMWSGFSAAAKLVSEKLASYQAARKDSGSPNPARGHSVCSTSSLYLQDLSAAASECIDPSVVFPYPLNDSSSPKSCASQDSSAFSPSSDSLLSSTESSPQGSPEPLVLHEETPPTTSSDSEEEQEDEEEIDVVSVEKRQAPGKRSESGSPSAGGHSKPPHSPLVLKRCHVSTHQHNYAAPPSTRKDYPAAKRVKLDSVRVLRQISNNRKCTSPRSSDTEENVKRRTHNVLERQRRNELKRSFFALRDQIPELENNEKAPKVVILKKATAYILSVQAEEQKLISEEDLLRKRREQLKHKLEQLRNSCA

| Compound | Dmax at 0.5 µM (MycC; L-363 cells, 24 h) | Dmax at 1 µM (MycC; L-363 cells, 24 h, 1 μM) | Dmax at 3 µM (MycC; L-363 cells, 24 h, 3 μM) | Dmax at 6 µM (MycC; L-363 cells, 24 h, 6 μM) | Dmax at 0.5 µM (MycN; SKNBE2 cells, 24 h, 0.5 μM) | Dmax at 1 µM (MycN; SKNBE2 cells, 24 h, 1 μM) | Dmax at 3 µM (MycN; SKNBE2 cells, 24 h, 3 μM) | Dmax at 6 µM (MycN; SKNBE2 cells, 24 h, 6 μM) | Dmax at 3 µM (MycC) | Dmax at 6 µM (MycC) | Dmax at 1 µM (MycN) | Dmax at 3 µM (MycN) | Dmax at 6 µM (MycN) | Dmax at 1 µM (MycC) | Dmax at 0.5 µM (MycN) |
| --- | --- | --- | --- | --- | --- | --- | --- | --- | --- | --- | --- | --- | --- | --- | --- |
| FC(F)(F)CNCC12CC(C1)N(c1nccc(Nc3cc(C4CCCC4)[nH]n3)n1)C2 [Compound 71, N-(5-Cyclopentyl-1H-pyrazol-3-yl)-2-[4-[(2,2,2-trifluoroethylamino)methyl]-2-azabicyclo[2.1.1]hexan-2-yl]pyrimidin-4-amine] | 20 to 49% | 80 to 100% | 80 to 100% | 80 to 100% | 20 to 49% | 50 to 79% | 80 to 100% | 80 to 100% |  |  |  |  |  |  |  |
| c1cc(Nc2cc(C3CCCC3)[nH]n2)nc(N2CC3(CN4CCOCC4)CC2C3)n1 [Compound 72, N-(5-Cyclopentyl-1H-pyrazol-3-yl)-2-[4-(morpholinomethyl)-2-azabicyclo[2.1.1]hexan-2-yl]pyrimidin-4-amine] |  |  |  | 80 to 100% | 20 to 49% | 20 to 49% | 50 to 79% | 80 to 100% |  |  |  |  |  |  |  |
| O=S1(=O)CCN(CC23CC(C2)N(c2nccc(Nc4cc(C5CCCC5)[nH]n4)n2)C3)CC1 [Compound 73, N-(5-Cyclopentyl-1H-pyrazol-3-yl)-2-[4-[(1,1-dioxo-1,4-thiazinan-4-yl)methyl]-2-azabicyclo[2.1.1]hexan-2-yl]pyrimidin-4-amine] |  |  | 20 to 49% | 80 to 100% | < 20% | 20 to 49% | 50 to 79% | 80 to 100% |  |  |  |  |  |  |  |
| c1cc(Nc2cc(C3CCCC3)[nH]n2)nc(N2CC3(CN4CCC4)CC2C3)n1 [Compound 76, 2-[4-(Azetidin-1-ylmethyl)-2-azabicyclo[2.1.1]hexan-2-yl]-N-(5-cyclopentyl-1H-pyrazol-3-yl)pyrimidin-4-amine] |  |  |  |  |  |  |  |  | < 20% | 80 to 100% | < 20% | 80 to 100% | 80 to 100% |  |  |
| CC(C)NCC12CC(C1)N(c1nccc(Nc3cc(C4CCCC4)[nH]n3)n1)C2 [Compound 78, N-(5-Cyclopentyl-1H-pyrazol-3-yl)-2-[4-[(isopropylamino)methyl]-2-azabicyclo[2.1.1]hexan-2-yl]pyrimidin-4-amine] |  |  |  |  |  |  |  |  | 50 to 79% | 80 to 100% | 20 to 49% | 80 to 100% | 80 to 100% | < 20% | < 20% |
| CN1CC2(C1)CN(c1nccc(Nc3cc(C4CCCC4)[nH]n3)n1)C2 [Compound 84, N-(5-cyclopentyl-1H-pyrazol-3-yl)-2-(6-methyl-2,6-diazaspiro[3.3]heptan-2-yl)pyrimidin-4-amine] | 20 to 49% | 20 to 49% | < 20% | 20 to 49% |  |  |  | 20 to 49% |  |  |  |  |  |  |  |
| CN1CC2(CCN(c3nccc(Nc4cc(C5CCCC5)[nH]n4)n3)C2)C1 [Compound 85, N-(5-cyclopentyl-1H-pyrazol-3-yl)-2-(2-methyl-2,6-diazaspiro[3.4]octan-6-yl)pyrimidin-4-amine] | < 20% |  |  | < 20% | < 20% | < 20% | 20 to 49% | 50 to 79% |  |  |  |  |  |  |  |
| CNCCCN(C)c1nccc(Nc2cc(C3CC3)[nH]n2)n1 [Compound 101, N^4-(5-Cyclopropyl-1H-pyrazol-3-yl)-N^2-methyl-N^2-[3-(methylamino)propyl]pyrimidine-2,4-diamine] | 20 to 49% | 20 to 49% | 20 to 49% | 20 to 49% | < 20% | < 20% | < 20% | 20 to 49% |  |  |  |  |  |  |  |
| c1cc(Nc2cc(C3CC3)[nH]n2)nc(N2CC3(CCCNC3)C2)n1 [Compound 105, N-(5-Cyclopropyl-1H-pyrazol-3-yl)-2-(2,8-diazaspiro[3.5]nonan-2-yl)pyrimidin-4-amine] |  |  | < 20% | 80 to 100% | < 20% | < 20% | < 20% | 80 to 100% |  |  |  |  |  |  |  |
| c1cc(Nc2cc(C3CCCC3)[nH]n2)nc(N2CC3(CCCNC3)C2)n1 [Compound 106, N-(5-Cyclopentyl-1H-pyrazol-3-yl)-2-(2,8-diazaspiro[3.5]nonan-2-yl)pyrimidin-4-amine] | < 20% | < 20% | < 20% | < 20% | < 20% | < 20% | 20 to 49% | 20 to 49% |  |  |  |  |  |  |  |

The next lines start with results.

| Dmax at 0.5 µM (MycC; L-363 cells, 24 h) | Dmax at 1 µM (MycC; L-363 cells, 24 h, 1 μM) | Dmax at 3 µM (MycC; L-363 cells, 24 h, 3 μM) | Dmax at 6 µM (MycC; L-363 cells, 24 h, 6 μM) | Dmax at 0.5 µM (MycN; SKNBE2 cells, 24 h, 0.5 μM) | Dmax at 1 µM (MycN; SKNBE2 cells, 24 h, 1 μM) | Dmax at 3 µM (MycN; SKNBE2 cells, 24 h, 3 μM) | Dmax at 6 µM (MycN; SKNBE2 cells, 24 h, 6 μM) | Compound | Dmax at 3 µM (MycC) | Dmax at 6 µM (MycC) | Dmax at 1 µM (MycN) | Dmax at 3 µM (MycN) | Dmax at 6 µM (MycN) | Dmax at 1 µM (MycC) | Dmax at 0.5 µM (MycN) |
| --- | --- | --- | --- | --- | --- | --- | --- | --- | --- | --- | --- | --- | --- | --- | --- |
|  |  |  | 50 to 79% | 20 to 49% | 20 to 49% | 50 to 79% | 80 to 100% | c1cc(Nc2cc(C3CCCC3)[nH]n2)nc(N2CC3(CN4CCCC4)CC2C3)n1 [Compound 75, N-(5-Cyclopentyl-1H-pyrazol-3-yl)-2-[4-(pyrrolidin-1-ylmethyl)-2-azabicyclo[2.1.1]hexan-2-yl]pyrimidin-4-amine] |  |  |  |  |  |  |  |
| 20 to 49% | 20 to 49% | 80 to 100% | 80 to 100% | 20 to 49% | 50 to 79% | 80 to 100% | 80 to 100% | CNCC12CC(C1)N(c1nccc(Nc3cc(C4CCC4)[nH]n3)n1)C2 [Compound 81, N-(5-Cyclobutyl-1H-pyrazol-3-yl)-2-[4-(methylaminomethyl)-2-azabicyclo[2.1.1]hexan-2-yl]pyrimidin-4-amine] |  |  |  |  |  |  |  |
|  |  | 80 to 100% | 80 to 100% | 20 to 49% | 20 to 49% | 80 to 100% | 80 to 100% | CN1CC2(CCN(c3nccc(Nc4cc(C5CCCC5)[nH]n4)n3)CC2)C1 [Compound 86] |  |  |  |  |  |  |  |
| < 20% | < 20% |  | 80 to 100% | < 20% | 20 to 49% | 80 to 100% | 80 to 100% | CC(F)(F)CNCC12CC(C1)N(c1nccc(Nc3cc(C4CCCC4)[nH]n3)n1)C2 [Compound 103, N-(5-Cyclopentyl-1H-pyrazol-3-yl)-2-[4-[(2,2-difluoropropylamino)methyl]-2-azabicyclo[2.1.1]hexan-2-yl]pyrimidin-4-amine] |  |  |  |  |  |  |  |
|  | < 20% |  | 20 to 49% |  | < 20% | 20 to 49% | 20 to 49% | CN1CCCC2(C1)CN(c1nccc(Nc3cc(C4CC4)[nH]n3)n1)C2 [Compound 104, N-(5-cyclopropyl-1H-pyrazol-3-yl)-2-(8-methyl-2,8-diazaspiro[3.5]nonan-2-yl)pyrimidin-4-amine] |  |  |  |  |  |  |  |
|  |  | < 20% | < 20% | < 20% | 20 to 49% | 20 to 49% | 20 to 49% | CN1CC2(CCCN(c3nccc(Nc4cc(C5CCCC5)[nH]n4)n3)C2)C1 [Compound 107, N-(5-cyclopentyl-1H-pyrazol-3-yl)-2-(2-methyl-2,6-diazaspiro[3.5]nonan-6-yl)pyrimidin-4-amine] |  |  |  |  |  |  |  |
|  |  | 80 to 100% | 80 to 100% | < 20% | 50 to 79% | 50 to 79% | 80 to 100% | NC[C@H]1CCCN(c2nccc(Nc3cc(C4CCCC4)[nH]n3)n2)C1 [Compound 108, 2-[(3R)-3-(Aminomethyl)-1-piperidyl]-N-(5-cyclopentyl-1H-pyrazol-3-yl)pyrimidin-4-amine] |  |  |  |  |  |  |  |
